Reference: patent US20260116921A1, “PEPTIDE INHIBITORS OF INTERLEUKIN-23 RECEPTOR AND THEIR USE TO TREAT INFLAMMATORY DISEASES” (priority 2018, published 2026)
Numbered stars: 1 amine (or outer) side, 2 acyl side, 3 side chain; on linkers, the order of the positions; unused ones are H or OH. Bridge positions count the residues as written; N and C are the ends. Square brackets hold non-standard residues; d marks the D form. Peptide text beside a SMILES is read from it. X1 = CCc1cccc2c(C[C@H](N[*:1])C(=O)[*:2])c[nH]c12; Trp(7-Me) = Cc1cccc2c(C[C@H](N)C(=O)O)c[nH]c12; 2Nal = N[C@@H](Cc1ccc2ccccc2c1)C(=O)O; AEF = NCCOc1ccc(C[C@H](N)C(=O)O)cc1; Cit = NC(=O)NCCC[C@H](N)C(=O)O; Pen = CC(C)(S)[C@H](N)C(=O)O; αMeK = C[C@](N)(CCCCN)C(=O)O; βAla = NCCC(=O)O

Tests used:
in vitro [1] = type: in vitro ADME; design: half-life: dose or concentration left out as unconfirmed; conditions: simulated intestinal fluid (SIF) with pancreatin, pH 6.8, 37° C., § matrix is 100 fold dilution of standard SIF concentration, read-out: SIF t½ (converted)
Method: SIF was prepared by adding 6.8 g of monobasic potassium phosphate and 10.0 g of pancreatin to 1.0 L of water. After dissolution, the pH was adjusted to 6.8 using NaOH. DMSO stocks (2 mM) were first prepared for the test compounds. Aliquots of the DMSO solutions were dosed into 6 individual tubes, each containing 0.5 mL of SIF, which is pre-warmed to 37° C. The final test compound concentration was 20 M. The vials were kept in a benchtop Thermomixer® for the duration of the experiment. At each timepoint (0, 5, 10, 20, 40, 60, or 360 minutes or 24 hours), 1.0 mL of acetonitrile containing 1% formic acid was added to one vial to terminate the reaction. Samples were stored at 4° C. until the end of the experiment. After the final timepoint is sampled, the tubes were mixed and then centrifuged at 3,000 rpm for 10 minutes. Aliquots of the supernatant were removed, diluted 1:1 into distilled water containing internal standard, and analyzed by LCMS/MS. Percent remaining at each timepoint was calculated based on the peak area response ratio of test to compound to internal standard. Time 0 was set to 100%, and all later timepoints were calculated relative to time 0. Half-lives were calculated by fitting to a first-order exponential decay equation using Graphpad.

in vitro [2] = conditions: human, 20% fecal homogenate (supernatant), anaerobic, pH 6.8
IL-23R = molecular target: T1, IL-23R (Homo sapiens, UniProt Q5VWK5); experiment: DB cells IL23R pSTAT3 cell assay (pStat3 HTRF); type: cell-based; conditions: Table E3; DB cells, IL-23 0.5 nM, 30 minutes at 37° C.; read-out: pStat3 HTRF (IC50)
T1 sequence (Q5VWK5 24-629): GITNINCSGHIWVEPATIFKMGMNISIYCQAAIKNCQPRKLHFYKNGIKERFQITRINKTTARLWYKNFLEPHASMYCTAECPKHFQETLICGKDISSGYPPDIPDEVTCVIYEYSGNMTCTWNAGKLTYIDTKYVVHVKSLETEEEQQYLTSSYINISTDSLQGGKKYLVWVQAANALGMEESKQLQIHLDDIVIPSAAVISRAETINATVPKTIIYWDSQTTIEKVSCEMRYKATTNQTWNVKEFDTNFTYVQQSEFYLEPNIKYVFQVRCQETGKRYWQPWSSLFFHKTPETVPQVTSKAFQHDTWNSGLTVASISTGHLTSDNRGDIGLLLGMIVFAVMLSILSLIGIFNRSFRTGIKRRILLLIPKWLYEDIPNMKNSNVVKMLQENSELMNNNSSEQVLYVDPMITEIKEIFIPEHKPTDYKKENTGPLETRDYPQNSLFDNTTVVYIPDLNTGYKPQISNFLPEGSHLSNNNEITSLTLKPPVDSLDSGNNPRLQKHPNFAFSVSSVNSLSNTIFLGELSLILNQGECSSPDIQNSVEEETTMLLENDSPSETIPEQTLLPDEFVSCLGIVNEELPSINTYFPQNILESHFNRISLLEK
Summary of the method: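 HTRF readout of lysate pSTAT3 (Tyr705) after two-plate processing. Peptide dilution series co-incubated with IL-23 (0.5 nM final) on 5×10E5 IL-23R-expressing DB cells per well, 30 min, 37 °C.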

in vitro [3] = conditions: both, SD, rat, plasma (EDTA)
in vitro [4] = conditions: cynomolgus monkey, 20% fecal homogenate (supernatant), anaerobic, pH 6.8
Method: Fecal homogenate (20%) was prepared by adding 4 mL of growth medium (1 liter contains 2 g peptone water powder, 2 g yeast extract, 0.1 g NaCl, 0.04 g KH2PO4, 0.01 g CaCl2·6H2O, 0.01 g MgSO4·7H2O, 2 mL Tween 80, 0.5 g bile salts, 0.5 g L-cysteine HCl, 2 g NaHCO3, and 10 μL Vitamin K, pH adjusted to 6.8, and sterilized by filtration through a 0.22 μm filter) to every gram of feces (pooled freshly collected human or cynomolgus monkey feces). The suspension was vortexed to break up large clumps, and homogenized using a bead mill homogenizer. Centrifuged the homogenate at 2800×g for 15 min. The supernatant is taken out and used for incubations. DMSO stocks (10 mM) were first prepared for the test compounds. Incubations were performed in an anaerobic chamber conditioned at 37° C. Aliquots of the DMSO solutions were dosed into 1.0 mL aliquots of 20% fecal homogenate, which are pre-warmed to 37° C. The final test compound concentration was 20 μM. At each timepoint (0, 20 min, 1, 3, 6, or 24 hours), 100 μL aliquot of each incubation mixture is taken out and added to separate tubes containing 300 μL of 50% acetonitrile/50% methanol and an internal standard to terminate the reaction. Samples were taken out of the anaerobic chamber and stored at 4° C. until the end of the experiment. After the final timepoint is sampled, the tubes were mixed and then centrifuged at 3,000 rpm for 10 minutes. Aliquots of the supernatant were removed, diluted 1:1 into distilled water containing 0.1% formic acid, and analyzed by LC/MS/MS. Percent remaining at each timepoint was calculated based on the peak area response ratio of test to compound to internal standard. Time 0 was set to 100%, and all later timepoints were calculated relative to time 0. Half-lives were calculated by fitting to a first-order exponential decay equation using Graphpad or Excel.

| Structure (SMILES) | half-life (in vitro [1]) [h] | half-life at 20 μM (in vitro [2]) [h] | IC50 (IL-23R) [nM] | half-life at 20 μM (in vitro [3]) [h] | half-life at 20 μM (in vitro [4]) [h] |
| --- | --- | --- | --- | --- | --- |
| CC(=O)NCCCC[C@@H]1NC(=O)[C@H](Cc2c[nH]c3c(C)cccc23)NC(=O)[C@H]([C@@H](C)O)NC(=O)[C@H](CC(N)=O)NC(=O)[C@@H](NC(C)=O)C(C)(C)SSC(C)(C)[C@@H](C(=O)N[C@@H](Cc2ccc(OCCN)cc2)C(=O)N[C@@H](Cc2ccc3ccccc3c2)C(=O)N[C@@](C)(CCCCN)C(=O)N[C@@H](CCCCNC(C)=O)C(=O)N[C@@H](CC(N)=O)C(=O)N[C@@H](C(N)=O)C(C)C)NC1=O [compound 251] | 22 | > 24 | < 1 | > 24 | > 24 |
| CC(=O)N[C@@H]1C(=O)N[C@@H](CC(N)=O)C(=O)N[C@@H]([C@@H](C)O)C(=O)N[C@@H](Cc2c[nH]c3c(C)cccc23)C(=O)N[C@@H](CCC(N)=O)C(=O)N[C@H](C(=O)N[C@@H](Cc2ccc(OCCN)cc2)C(=O)N[C@@H](Cc2ccc3ccccc3c2)C(=O)N[C@@](C)(CCCCN)C(=O)N[C@@H](CCCNC(N)=O)C(=O)NCCC(=O)NCCC(N)=O)C(C)(C)SSC1(C)C [compound 279] | 7 | > 24 | 1 to 10 | > 24 | > 24 |
| CC(=O)NCCCC[C@@H]1NC(=O)[C@H](Cc2c[nH]c3c(C)cccc23)NC(=O)[C@H]([C@@H](C)O)NC(=O)[C@H](CC(N)=O)NC(=O)[C@@H](NC(C)=O)C(C)(C)SSC(C)(C)[C@@H](C(=O)N[C@@H](Cc2ccc(OCCN)cc2)C(=O)N[C@@H](Cc2ccc3ccccc3c2)C(=O)N[C@@](C)(CCCCN)C(=O)N[C@@H](CCCCNC(C)=O)C(=O)N[C@@H](CC(N)=O)C(=O)N2CCC[C@@H]2C(N)=O)NC1=O [compound 254] | 16 | > 24 | 1 to 10 | 12 | > 24 |
| CC(=O)NCCCC[C@@H]1NC(=O)[C@H](Cc2c[nH]c3c(C)cccc23)NC(=O)[C@H]([C@@H](C)O)NC(=O)[C@H](CC(N)=O)NC(=O)[C@@H](NC(C)=O)C(C)(C)SSC(C)(C)[C@@H](C(=O)N[C@@H](Cc2c[nH]cn2)C(=O)N[C@@H](Cc2ccc3ccccc3c2)C(=O)N[C@@](C)(CCCCN)C(=O)N[C@@H](CCCCNC(C)=O)C(=O)N[C@@H](CC(N)=O)C(=O)N[C@H](CC(C)C)C(N)=O)NC1=O [compound 290] (Ac-[Pen]NT[Trp(7-Me)]K(Ac)[Pen]H[2Nal][αMeK]K(Ac)N[dL]-NH2; disulfide 1-6) | 16 | > 24 | 1 to 10 | > 24 | > 24 |
| CC(=O)NCCCC[C@@H]1NC(=O)[C@H](Cc2c[nH]c3c(C)cccc23)NC(=O)[C@H]([C@@H](C)O)NC(=O)[C@H](CC(N)=O)NC(=O)[C@@H](NC(C)=O)C(C)(C)SSC(C)(C)[C@@H](C(=O)N[C@@H](Cc2ccc(OCCN)cc2)C(=O)N[C@@H](Cc2ccc3ccccc3c2)C(=O)N[C@@](C)(CCCCN)C(=O)N[C@@H](CCCCNC(C)=O)C(=O)N[C@@H](CC(N)=O)C(=O)N[C@H](C(N)=O)C(C)C)NC1=O [compound 250] | 17 | > 24 | 1 to 10 | > 24 | 12 |
| CCc1cccc2c(C[C@@H]3NC(=O)[C@H]([C@@H](C)O)NC(=O)[C@H](CC(N)=O)NC(=O)[C@@H](NC(C)=O)C(C)(C)SSC(C)(C)[C@@H](C(=O)N[C@@H](Cc4ccc(OCCN)cc4)C(=O)N[C@@H](Cc4ccc5ccccc5c4)C(=O)N[C@@](C)(CCCCN)C(=O)N[C@@H](CCCCNC(C)=O)C(=O)N[C@@H](CC(N)=O)C(=O)N[C@H](CC(C)C)C(N)=O)NC(=O)[C@H](CCCCNC(C)=O)NC3=O)c[nH]c12 [compound 284] (Ac-[Pen]NT[X1]K(Ac)[Pen][AEF][2Nal][αMeK]K(Ac)N[dL]-NH2; disulfide 1-6) | 2 | > 24 | < 1 | > 24 | > 24 |
| CC(=O)NCCCC[C@H](NC(=O)[C@](C)(CCCCN)NC(=O)[C@H](Cc1ccc2ccccc2c1)NC(=O)[C@H](Cc1ccc(OCCN)cc1)NC(=O)[C@H]1NC(=O)[C@H](CCCNC(N)=O)NC(=O)[C@H](Cc2c[nH]c3c(C)cccc23)NC(=O)[C@H]([C@@H](C)O)NC(=O)[C@H](CC(N)=O)NC(=O)[C@@H](NC(C)=O)C(C)(C)SSC1(C)C)C(=O)N[C@@H](CC(N)=O)C(=O)N[C@@H](C(N)=O)[C@H](C)O [compound 263] (Ac-[Pen]NT[Trp(7-Me)][Cit][Pen][AEF][2Nal][αMeK]K(Ac)N[dT]-NH2; disulfide 1-6) | 14 | > 24 | < 1 | > 24 | 9 |
| CCC(CC)(NC(=O)[C@H](Cc1ccc2ccccc2c1)NC(=O)[C@H](Cc1ccc(OCCN)cc1)NC(=O)[C@H]1NC(=O)[C@H](CCC(N)=O)NC(=O)[C@H](Cc2c[nH]c3c(C)cccc23)NC(=O)[C@H]([C@@H](C)O)NC(=O)[C@H](CC(N)=O)NC(=O)[C@@H](NC(C)=O)C(C)(C)SSC1(C)C)C(=O)N[C@@H](CCCCNC(C)=O)C(=O)N[C@@H](CC(N)=O)C(=O)NCCC(N)=O [compound 276] | 13 | > 24 | < 1 | 5 | 13 |
| CC(=O)NCCCC[C@H](NC(=O)[C@](C)(CCCCN)NC(=O)[C@H](Cc1ccc2ccccc2c1)NC(=O)[C@H](Cc1ccc(OCCN)cc1)NC(=O)[C@H]1NC(=O)[C@H](CCCNC(N)=O)NC(=O)[C@H](Cc2c[nH]c3c(C)cccc23)NC(=O)[C@H]([C@@H](C)O)NC(=O)[C@H](CC(N)=O)NC(=O)[C@@H](NC(C)=O)C(C)(C)SSC1(C)C)C(=O)NCCC(=O)NCCC(N)=O [compound 268] (Ac-[Pen]NT[Trp(7-Me)][Cit][Pen][AEF][2Nal][αMeK]K(Ac)[βAla][βAla]-NH2; disulfide 1-6) | 15 | > 24 | 1 to 10 | > 24 | > 24 |
| CC[C@H](C)[C@H](NC(=O)[C@H](CC(N)=O)NC(=O)[C@H](CCCCNC(C)=O)NC(=O)[C@](C)(CCCCN)NC(=O)[C@H](Cc1ccc2ccccc2c1)NC(=O)[C@H](Cc1ccc(OCCN)cc1)NC(=O)[C@H]1NC(=O)[C@H](CCCCNC(C)=O)NC(=O)[C@H](Cc2c[nH]c3c(C)cccc23)NC(=O)[C@H]([C@@H](C)O)NC(=O)[C@H](CC(N)=O)NC(=O)[C@@H](NC(C)=O)C(C)(C)SSC1(C)C)C(N)=O [compound 255] | 19 | > 24 | 1 to 10 | > 24 | 15 |
| CC(=O)NCCCC[C@H](NC(=O)[C@](C)(CCCCN)NC(=O)[C@H](Cc1ccc2ccccc2c1)NC(=O)[C@H](Cc1ccc(OCCN)cc1)NC(=O)[C@H]1NC(=O)[C@H](CCCNC(N)=O)NC(=O)[C@H](Cc2c[nH]c3c(C)cccc23)NC(=O)[C@H]([C@@H](C)O)NC(=O)[C@H](CC(N)=O)NC(=O)[C@@H](NC(C)=O)C(C)(C)SSC1(C)C)C(=O)N[C@@H](CC(N)=O)C(=O)N[C@H](Cc1ccccc1)C(N)=O [compound 257] (Ac-[Pen]NT[Trp(7-Me)][Cit][Pen][AEF][2Nal][αMeK]K(Ac)N[dF]-NH2; disulfide 1-6) | 5 | > 24 | 1 to 10 | > 24 | 23 |
